Experimental data as given in PMC8898348 (Journal of the Indian Chemical Society, 2022).
Like-named read-outs stand apart in the source and are kept apart here. Where a SMILES comes first, the peptide text is derived from it. The star is where a group is joined. MeOSuc = COC(=O)CCC(=O)*; CH2Cl = ClC*

What was measured:
Collagenase = test: collagenase enzyme inhibition, spectrophotometric; format: biochemical; conditions: read-out: Collagenase IC50
Elastase = Elastase (Sus scrofa, UniProt P00772); test: elastase inhibitory activity, spectrophotometric; format: biochemical
SK-LU-1 = test: MTT cytotoxicity assay, SK-LU-1; format: cell-based; conditions: Homo sapiens, SK-LU-1, read-out: SK-LU-1 IC50
95D = test: MTT cytotoxicity assay, 95D; format: cell-based; conditions: Homo sapiens, read-out: 95D IC50
[1] = tested on: SPC-A-1, SK-LU-1, and 95D human lung cancer cell lines; test: MTT cytotoxicity assay, three lung cancer cell lines together; format: cell-based; conditions: read-out: IC50 growth inhibition in the three lung cancer cells

Chain of Elastase (P00772 27-266): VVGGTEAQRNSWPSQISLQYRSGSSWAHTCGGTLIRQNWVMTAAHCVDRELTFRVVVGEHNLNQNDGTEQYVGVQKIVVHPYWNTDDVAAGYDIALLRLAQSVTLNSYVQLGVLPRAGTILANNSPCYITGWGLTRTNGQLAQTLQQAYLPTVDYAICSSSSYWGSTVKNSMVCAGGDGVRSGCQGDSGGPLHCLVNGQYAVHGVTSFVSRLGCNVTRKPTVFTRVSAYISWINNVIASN

With OC[C@H](Cc1cccc(O)c1)[C@H](CO)Cc1cccc(O)c1 [Enterodiol] as the compound, how does the IC50 (Collagenase) read?
The IC50 was 104 ± 11.3 µM.

What about the IC50 (Elastase) of the same compound?
The IC50 was 11.1 ± 1.87 µM.

What about the IC50 (SK-LU-1) of the same compound?
The IC50 was 67.3 µM.

What about the IC50 (95D) of the same compound?
The IC50 was 64.1 µM.

COc1cc(O)c(C(=O)/C=C/c2ccc(O)cc2)c(OC)c1 [Flavokawain C] was tested. Which IC50 (Collagenase) did it give?
The IC50 was 62.1 ± 9.43 µM.

What about the IC50 (Elastase) of the same compound?
Its IC50 is 17.6 ± 1.68 µM.

And the IC50 (SK-LU-1)?
The IC50 was 22.7 µM.

What about the IC50 (95D) of the same compound?
The IC50 was 21 µM.

And the IC50 [1]?
The IC50 was 12 to 30 µM.

With COc1cc(O)c(C(=O)/C=C/c2ccccc2)c(OC)c1 [Flavokawain B] as the compound, how does the IC50 (Collagenase) read?
Its IC50 is 71.1 ± 16 µM.

And the IC50 (Elastase)?
Its IC50 is 20.1 ± 2.36 µM.

And the IC50 (SK-LU-1)?
The IC50 was 29.3 µM.

And the IC50 (95D)?
Its IC50 is 32.6 µM.

What about the IC50 [1] of the same compound?
Its IC50 is 12 to 30 µM.

Which IC50 (SK-LU-1) does the source give for COc1cccc2c1C(=O)c1c(O)c3c(c(O)c1C2=O)C[C@@](O)(C(=O)CO)C[C@@H]3O[C@H]1C[C@H](N)[C@H](O)[C@H](C)O1 [Doxorubicin, reference compound] here?
Its IC50 is 25 µM.

And the IC50 (95D)?
The IC50 was 25 µM.

What about the IC50 [1] of the same compound?
Its IC50 is 25 to 30 µM.

Which IC50 (Collagenase) does the source give for CC(C)C[C@H](NP(=O)(O)O[C@@H]1O[C@@H](C)[C@H](O)[C@@H](O)[C@H]1O)C(=O)N[C@@H](Cc1c[nH]c2ccccc12)C(=O)O [Phosphoramidon, reference compound] here?
The IC50 was 101 ± 14.8 µM.

Which IC50 (Elastase; read-out: Elastase IC50) does the source give for COC(=O)CCC(=O)N[C@@H](C)C(=O)N[C@@H](C)C(=O)N1CCC[C@H]1C(=O)N[C@H](C(=O)CCl)C(C)C [N-(Methoxysuccinyl)-Ala-Ala-Pro-Val-chloromethyl ketone, reference compound] (MeOSuc-AAPV-CH2Cl) here?
The IC50 was 30.6 ± 3.25 µM.

How did the IC50 (Collagenase) turn out when COc1ccc(/C=C/C(=O)c2c(O)cc(OC)cc2OC)cc1 [Flavokawain A] was run?
Its IC50 is 66.3 ± 7.95 µM.

And the IC50 (Elastase)?
The IC50 was 27.3 ± 4.67 µM.

What about the IC50 (SK-LU-1) of the same compound?
The IC50 was 23.3 µM.

What about the IC50 (95D) of the same compound?
Its IC50 is 22.4 µM.

What about the IC50 [1] of the same compound?
The IC50 was 12 to 30 µM.

How did the IC50 (Collagenase) turn out when O=C1OC[C@H](Cc2cccc(O)c2)[C@H]1Cc1cccc(O)c1 [Enterolactone] was run?
Its IC50 is 9.66 ± 1.52 µM.

What about the IC50 (Elastase) of the same compound?
Its IC50 is 22.5 ± 4.08 µM.

What about the IC50 (SK-LU-1) of the same compound?
Its IC50 is 45.8 µM.

And the IC50 (95D)?
The IC50 was 41.1 µM.
